Read-outs that look alike come from different tables or passages of the source.
How the values were obtained:
in vitro = conditions: hamster
[1] = tested on: human herpes simplex virus-2 (HSV-2); conditions: cited from earlier work
[2] = tested on: FMDV serotype A [A/TAI/NP05/2017 (NP05)]; test: microbe, parasite or virus in culture; assay type: cell-based, Foot-and-mouth disease virus; conditions: for EC50: read-out: Antiviral Activity (EC50) CPE (Crystal Violet)
[3] = tested on: FMDV serotype A [A/TAI/NP05/2017 (NP05)]; test: microbe, parasite or virus in culture; assay type: cell-based, Foot-and-mouth disease virus; conditions: for EC50: read-out: Antiviral Activity (EC50) Viral Copy Number (RT-qPCR)
ZIKV = conditions: read-out: IC50 against ZIKV; cited from earlier work
[4] = tested on: FMDV serotype A [A/TAI/NP05/2017 (NP05)]; test: microbe, parasite or virus in culture; assay type: cell-based, Foot-and-mouth disease virus
FMDV 3D^pol = FMDV 3D^pol (Foot-and-mouth disease virus serotype O, UniProt P03305); test: cell-based; assay type: cell-based
HSV-1 = conditions: cited from earlier work
[5] = read-out: Antiviral Activity (EC50) FMDV-Infected Cells (IPMA)
[6] = Foot-and-mouth disease virus, BHK-21, 24 h
[7] = Foot-and-mouth disease virus, BHK-21, read-out: Antiviral Activity (EC50) FMDV-Infected Cells (IPMA)

Sequence of FMDV 3D^pol (P03305 1863-2332 limits assumed): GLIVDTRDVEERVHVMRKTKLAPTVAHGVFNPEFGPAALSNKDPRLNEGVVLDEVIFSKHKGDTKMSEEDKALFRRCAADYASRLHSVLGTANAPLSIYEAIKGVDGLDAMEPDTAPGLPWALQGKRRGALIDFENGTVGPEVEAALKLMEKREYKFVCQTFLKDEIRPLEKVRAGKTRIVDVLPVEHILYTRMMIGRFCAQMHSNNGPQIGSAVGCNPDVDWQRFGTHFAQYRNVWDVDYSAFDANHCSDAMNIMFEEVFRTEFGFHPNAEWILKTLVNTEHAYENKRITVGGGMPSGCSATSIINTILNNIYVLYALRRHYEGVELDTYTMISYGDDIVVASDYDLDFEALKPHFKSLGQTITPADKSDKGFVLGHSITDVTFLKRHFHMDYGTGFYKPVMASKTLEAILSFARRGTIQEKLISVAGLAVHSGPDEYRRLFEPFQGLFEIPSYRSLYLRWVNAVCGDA

Molecule: CC(=O)O[C@@]12CO[C@@H]1C[C@H](O)[C@@]1(C)C(=O)[C@H](O)C3=C(C)[C@@H](O)C[C@@](O)([C@@H](OC(=O)c4ccccc4)[C@H]21)C3(C)C [10-Deacetylbaccatin III]
- CC50 (BHK-21 cells): > 500 µM

Molecule: CC(C)C1=CC2=CC[C@@H]3[C@](C)(CCC[C@@]3(C)C(=O)O)[C@H]2CC1 [Abietic acid]
- CC50 (in vitro): 99.2 ± 2 µM
- Activity against HSV-2 (result in words) [1]: did not exhibit such activity
- Antiviral Activity (EC50) CPE (Crystal Violet) [2]: Not inhibit
- Antiviral activity against FMDV infection (result in words) [2]: did not exhibit antiviral activity

Molecule: C[C@@H]1C[C@@H]([C@@H](O)C(C)(C)O)O[C@H]2C[C@@]3(C)C(=C12)C[C@H](O)[C@H]1[C@@]2(C)CCC(=O)C(C)(C)[C@@H]2CC[C@@]13C [Alisol F]
- CC50 (BHK-21 cells): 85.2 ± 1.93 µM

Molecule: CC1=CC(=O)[C@@H](O)[C@]2(C)[C@H]3[C@@H](O)[C@H](O)[C@@]4(C)OC[C@@]35[C@@H](C[C@@H]12)OC(=O)[C@H](O)[C@]54O [Bruceine D]
- Concentration range of complete inhibition of FMDV [3]: 1 to 2.5 µM
- EC50 [3]: 0.42 ± 0.38 µM
- IC50 (ZIKV): 0.36 µM
- EC50 [4, 5]: 0.32 ± 0.49 µM
- Antiviral activity against FMDV infection (result in words) [2]: exhibited antiviral activities
- EC50 [2]: 0.25 ± 0.6 µM

Molecule: CC1=C[C@H](O)[C@@H](O)[C@]2(C)[C@H]3[C@@H](O)[C@H](O)[C@@]4(C)OC[C@@]35[C@@H](C[C@@H]12)OC(=O)[C@H](O)[C@]54O [Bruceine E]
- Inhibition of viral load (result in words) [3]: moderate potency
- EC50 [3, 6]: 33.4 ± 1.52 µM
- CC50 (in vitro): 49.6 ± 1.7 µM
- IC50 (FMDV 3D^pol): 26.7 ± 1.43 µM
- Inhibition of FMDV 3Dpol (result in words) (FMDV 3D^pol): moderate inhibition
- EC50 [4, 7]: 12.9 ± 1.11 µM
- Antiviral activity against FMDV infection (result in words) [2]: exhibited antiviral activities
- EC50 [2, 6]: 18.1 ± 1.26 µM

Molecule: C=CC1(C)C=C2CCC3C(C)(C(=O)O)CCCC3(C)C2CC1 (centres unmarked) [Continentalic acid]
- Inhibition of viral load (result in words) [3]: moderate inhibition
- EC50 [3, 6]: 68.3 ± 1.83 µM
- CC50 (in vitro): 88.7 ± 1.82 µM
- IC50 (FMDV 3D^pol): 36.9 ± 1.57 µM
- Inhibition of FMDV 3Dpol (result in words) (FMDV 3D^pol): moderate inhibition
- EC50 [4, 7]: 35 ± 1.54 µM
- Antiviral activity against FMDV infection (result in words) [2]: exhibited antiviral activities
- EC50 [2, 6]: 43.4 ± 1.64 µM

Molecule: CC(C)(O)CCC(=O)[C@](C)(O)C1[C@H](O)C[C@@]2(C)[C@@H]3CC=C4[C@@H](C[C@H](O)[C@@H](O)C4(C)C)[C@]3(C)C(=O)C[C@]12C (some centres unmarked) [Cucurbitacin IIb]
- CC50 (BHK-21 cells): 240.5 ± 2.38 µM

Molecule: CC(C)c1ccc2c(c1)CC[C@H]1[C@](C)(C(=O)O)CCC[C@]21C [Dehydroabietic acid]
- Inhibition of viral load (result in words) [3]: low to moderate inhibition
- EC50 [3, 6]: 64.5 ± 1.81 µM
- Activity against HSV-1 (result in words) (HSV-1): did not inhibit
- CC50 (in vitro): 94.8 ± 1.98 µM
- Activity against HSV-2 (result in words) [1]: moderate activity
- IC50 (FMDV 3D^pol): > 50 µM
- EC50 [4, 7]: 34 ± 1.53 µM
- Antiviral activity against FMDV infection (result in words) [2]: exhibited antiviral activities
- EC50 [2, 6]: 41.7 ± 1.62 µM

Molecule: C=C1[C@H](OC(=O)c2ccccc2)C[C@H]2[C@@H](/C=C(\C)C(=O)[C@@]3(OC(C)=O)C[C@H](C)[C@H](OC(=O)c4ccccc4)[C@@H]3[C@H]1OC(C)=O)C2(C)C [Euphorbia factor L2]
- CC50 (BHK-21 cells): 114 ± 2.06 µM

Molecule: CC(=O)O[C@H]1[C@H]2[C@@H](OC(=O)Cc3ccccc3)[C@@H](C)C[C@]2(OC(C)=O)C(=O)/C(C)=C/[C@@H]2[C@H](CC[C@@]13CO3)C2(C)C [Euphorbiasteroid]
- CC50 (BHK-21 cells): > 500 µM

Molecule: C=C[C@@]1(C)CC(=O)[C@]2(O)[C@@]3(C)[C@@H](O)CCC(C)(C)[C@@H]3[C@H](O)[C@H](OC(C)=O)[C@@]2(C)O1 [Forskolin]
- CC50 (in vitro): 75.9 ± 1.88 µM

Molecule: C[C@H](CC(=O)C[C@@H](C)[C@H]1C[C@H](O)[C@@]2(C)C3=C(C(=O)C[C@]12C)[C@@]1(C)CCC(=O)C(C)(C)[C@@H]1C[C@@H]3O)C(=O)O [Ganoderic acid A]
- CC50 (in vitro): > 500 µM

Molecule: C[C@@H]1C(=O)O[C@H]2C[C@@]34[C@H]5C[C@@H](C(C)(C)C)[C@]36[C@@H](OC(=O)[C@@H]6O)O[C@@]4(C(=O)O5)[C@]21O [Ginkgolide A]
- CC50 (in vitro): 314.2 ± 2.5 µM

Molecule: CC(C)=CCC[C@](C)(O)[C@H]1CC[C@]2(C)[C@@H]1[C@H](O)C[C@@H]1[C@@]3(C)CC[C@H](O[C@@H]4O[C@H](CO)[C@@H](O)[C@H](O)[C@H]4O[C@@H]4O[C@H](CO)[C@@H](O)[C@H](O)[C@H]4O)C(C)(C)[C@@H]3CC[C@]12C [Ginsenoside Rg3]
- CC50 (BHK-21 cells): 269.9 ± 2.43 µM

Molecule: CC(C)=CCC[C@](C)(O)[C@H]1CC[C@]2(C)[C@@H]1[C@H](O)C[C@@H]1[C@@]3(C)CC[C@H](O)C(C)(C)[C@@H]3[C@@H](O[C@@H]3O[C@H](CO)[C@@H](O)[C@H](O)[C@H]3O)C[C@]12C [Ginsenoside Rh1]
- CC50 (in vitro): 174 ± 2.24 µM

Molecule: CC1=C[C@]23C(=O)[C@@H](C=C(CO)[C@@H](O)[C@]2(O)[C@H]1O)[C@H]1[C@@H](C[C@H]3C)C1(C)C [Ingenol]
- CC50 (in vitro): 417.1 ± 2.62 µM

Molecule: C=C1C[C@@]23CC[C@H]4[C@@](C)(CCC[C@@]4(C)C(=O)O)[C@@H]2CC[C@@H]1C3 [Kaurenoic acid]
- CC50 (in vitro): 266.1 ± 2.42 µM
- Antiviral Activity (EC50) CPE (Crystal Violet) [2]: Not inhibit
- Antiviral activity against FMDV infection (result in words) [2]: did not exhibit antiviral activity

Molecule: C=C1CC[C@H]2[C@@H](/C=C(\C)C(=O)[C@@]3(O)C[C@H](C)[C@H](O)[C@@H]3[C@@H]1O)C2(C)C [Lathyrol]
- CC50 (BHK-21 cells): 314.6 ± 2.5 µM

Molecule: CC1(C)O[C@H]2CC(=O)OC[C@]23[C@H]2CC[C@@]4(C)[C@H](c5ccoc5)OC(=O)[C@H]5O[C@]54[C@]2(C)C(=O)C[C@@H]13 [Limonin]
- CC50 (in vitro): 116 ± 2.07 µM

Molecule: C=C1C(=O)[C@]23[C@H](O)[C@H]1CC[C@H]2[C@@]12CO[C@]3(O)[C@@H](O)[C@@H]1C(C)(C)CC[C@@H]2O [Oridonin]
- CC50 (in vitro): 46.8 ± 1.67 µM

Molecule: COC(=O)C1=CC[C@@]23CC[C@@H]([C@@](C)(/C=C/C=C(\C)C(=O)O)OC2=O)[C@@]3(OC(C)=O)CC1 [Pseudolaric acid]
- CC50 (BHK-21 cells): 25.3 ± 1.4 µM

Molecule: NC(=O)c1ncn([C@@H]2O[C@H](CO)[C@@H](O)[C@H]2O)n1 [Ribavirin, reference compound]
- EC50 [3, 6]: 27.7 ± 1.44 µM
- CC50 (in vitro): > 500 µM
- EC50 [4, 7]: 40.9 ± 1.61 µM
- EC50 [2, 6]: 64.5 ± 1.81 µM

Molecule: C[C@@H]1CC[C@]2(C(=O)O[C@@H]3O[C@H](CO)[C@@H](O)[C@H](O)[C@H]3O)CC[C@]3(C)C(=CC[C@@H]4[C@@]5(C)C[C@@H](O)[C@H](O)C(C)(C)[C@@H]5CC[C@]43C)[C@@H]2[C@]1(C)O [Rosamultin]
- CC50 (BHK-21 cells): 333.2 ± 2.52 µM

Molecule: C=C(C(=O)O)[C@H]1CC[C@H](C)[C@@H]2CC(=O)C(C)=C2C1 [Rupestonic acid]
- CC50 (BHK-21 cells): 72.3 ± 1.86 µM

Molecule: CC1(C)O[C@H]2CC(=O)OC[C@]23[C@H]2CC[C@@]4(C)[C@H](c5ccoc5)OC(=O)[C@H]5O[C@]54[C@]2(C)[C@@H](O)C(=O)[C@@H]13 [Rutaevin]
- CC50 (in vitro): 472 ± 2.67 µM

Molecule: C[C@H]1O[C@@H](O[C@H]2CC[C@@]3(C)[C@@H](CC[C@]4(C)[C@@H]3C=CC3=C5CC(C)(C)CC[C@]5(CO)[C@H](O)C[C@]34C)[C@]2(C)CO)[C@H](O)[C@@H](O[C@@H]2O[C@H](CO)[C@@H](O)[C@H](O)[C@H]2O)[C@H]1O [Saikosaponin B2]
- CC50 (BHK-21 cells): > 500 µM

Molecule: CCC(C)(C)C(=O)O[C@H]1C[C@@H](C)C=C2C=C[C@H](C)[C@H](CC[C@@H]3C[C@@H](O)CC(=O)O3)[C@H]21 [Simvastatin, reference compound]
- CC50 (in vitro): 294.4 ± 2.47 µM

Molecule: CC1(C)CCC2(C(=O)O)CCC3(CO)C(=CCC4C5(C)CC(O)C(OC6OC(CO)C(O)C(O)C6O)C(C)(C(=O)O)C5CCC43C)C2C1 (centres unmarked) [Tenuifolin]
- CC50 (in vitro): 54.9 ± 1.74 µM

Molecule: CC(C)[C@]12O[C@H]1[C@@H]1O[C@]13[C@]1(O[C@H]1C[C@H]1C4=C(CC[C@@]13C)C(=O)OC4)[C@@H]2O [Triptolide]
- CC50 (in vitro): 122 ± 2.09 µM

Molecule: CC(C)c1ccc2c(c1O)CC[C@H]1C3=C(CC[C@]21C)C(=O)OC3 [Triptophenolide]
- CC50 (in vitro): 117 ± 2.07 µM

Molecule: C[C@@H]1CC[C@]2(C(=O)O)CC[C@]3(C)C(=CC[C@@H]4[C@@]5(C)CC[C@H](O[C@@H]6OC[C@H](O)[C@H](O)[C@H]6O)C(C)(C)[C@@H]5CC[C@]43C)[C@@H]2[C@]1(C)O [Ziyuglycoside II]
- CC50 (BHK-21 cells): 57.7 ± 1.76 µM

Molecule: Brusatol
- Concentration range of complete inhibition of FMDV [3]: 0.5 to 1 µM
- EC50 [3]: 0.09 µM
- EC50 [4, 5]: 0.07 µM
- Antiviral activity against FMDV infection (result in words) [2]: exhibited antiviral activities
- EC50 [2]: 0.18 ± 0.27 µM

From PMC11281344 (Viruses, 2024)
